According to patent US7863242B2, “Compositions for down-regulation of CCR5 expression and methods of use thereof” (priority 2003, dated 2011):

Key:
HIV-1 ADA = assay: microbe, parasite or virus in culture
Description: Infectivity Assays: The following viruses were used in infection experiments: HIV-1 IIIb, HIV-1 ADA, HIV-1 BaL, HIV-1 JRFL, HIV-1 JRCSF, and HIV-1 SF162. HIV-1 IIIb is a T cell line-adapted lab strain that uses CXCR4 for entry into cells, whereas the rest are isolates that use CCR5. Viruses were obtained from the National Institutes of Health AIDS Research and Reference Reagent Program.
For infection of PBMCs, fresh donor PBMCs were cultured for 7 days in medium containing IL-2. On day 7, cells were exposed to the virus for 3 h. Nonadsorbed virus was removed by washing cells with PBS three times. Infected cells were cultured in IL-2 medium. Infection of MDMs was carried out as described before (Perno, 1993). Unless otherwise indicated, PBMCs were infected by using an moi of 0.001, and MDM were infected by using an moi of 0.002. Virus growth was monitored in culture supernatants by measuring p24 antigen levels by ELISA (NEN) or by measuring viral RT activity in an RT assay (Willey, 1988).
Antiviral Activity of RAPA in PBMCs: The antiviral activity of RAPA was assayed in PBMCs that had been cultured in the presence of RAPA for 7 days before infection. Cells were infected with the X4 HIV-1 IIIb and the R5 HIV-1 ADA strains. Infected cells were cultured in the presence of RAPA (same concentration as during pretreatment) for 7 additional days, during which time virus replication and cell viability were measured.
To test this hypothesis, donor PBMCs were cultured in IL-2 medium in the absence or presence of RAPA (1, 10, and 100 nM). […] Infected cells were cultured in the presence of RAPA (same concentration as during pretreatment) plus 0.1 nM TAK-779. Virus production was determined 7 days after infection.
Donor PBMCs were cultured in IL-2 medium in the absence or presence of HU (0 and 10 uM). After 7 days, cells were infected with HIV-1 ADA. Infected cells were cultured in the presence of HU (same concentration as during pretreatment) plus different concentration of TAK-779 ranging from 0, 2 and 20 nM). Virus production was determined 7 days after infection.
In order to determine the nature and degree of interaction between RAPA and T20, infectivity assays were performed in the presence of the drugs, alone and in combination. The infectivity assays were performed using PBMCs from healthy donors. PBMCs were cultured for 7 days in the presence of IL-2 (100 U/ml) in the presence or absence of RAPA. On day 7, cells were infected by exposure to the R5 strain HIV-1 ADA (m.o.i of 0.001) for 2 h. Non-adsorbed virus was removed by 3 washes with PBS. Infected cells were then plated in RPMI-10 supplemented with IL-2 (100 U/ml) in the presence of different concentrations of RAPA and T20. Each drug concentration was tested in triplicate. Medium was changed in day 3 after infection and drugs were added at the same concentration as before. On day 7 after infection, virus production was measured in the culture supernatants using a commercial p24 antigen ELISA (NCI, Frederick). Cell viability was determined using the MTT assay (Roche).
The antiviral data was then analyzed for synergy using two different methodologies, the Median Effect principle and Three Dimensional modeling.

human lymphocytes = assay: Cell cycle analysis of activated PBMCs (propidium iodide, flow cytometry); format: cell-based; settings: 4 μM, 24 hours, PBMCs from 2 normal donors
Description: Indirubin-3′-monoxime (IM) arrests human lymphocytes in G1 phase. PBMCs from 2 normal donors were activated in absence and presence of 4 μM Indirubin-3′-momoxime (IM) for 24 hours. Cells were then fixed with 70% Ethanol, stained with Propidium Iodide, and analyzed by Flow cytometry. Percentages of cells in each phase of the cell cycle are shown.

Row | Compound | reduction of p24 levels (HIV-1 ADA; 2 nM of TAK-779 alone, day 7 after infection) | inhibition at 0.0001 µM (HIV-1 ADA; Human immunodeficiency virus 1, PBMC, 168 h, read-out: inhibition of virus replication) [%] | percentage of cells in G1 phase versus untreated control (human lymphocytes)
1 | Cc1ccc(-c2ccc3c(c2)C=C(C(=O)Nc2ccc(C[N+](C)(C)C4CCOCC4)cc2)CCC3)cc1.[Cl-] [TAK-779, N,N-dimethyl-N-[4-[[[2-(4-methylphenyl)-6,7-dihydro-5H-benzocyclohepten-8-yl]carbonyl]amino]benzyl]tetrahydro-2H-pyran-4-aminium chloride] | about 20% | 21 | 
2 | Indirubin-3′-monoxime |  |  | the % of cells in G1 increases
